Results taken from a melting point compilation (Tetko et al.; mined from patent text by program, amines drawn as free bases though some values may be those of a salt).

SMILES | melting point
COC(=O)NCCOc1cc(-c2ccccc2)on1 | 95 to 96 °C
OCCCOc1nc(N2CCCCC2)c2nc(OCCCO)nc(N3CCCCC3)c2n1 | 154 to 156 °C
CC(C)(C)CC(C)(C)c1cc(N=Nc2ccc(C(F)(F)F)cc2[N+](=O)[O-])c(O)c(C(C)(C)c2ccccc2)c1 | 101 to 105 °C
CC(C)(C)n1nc(-c2ccoc2)c(C(N)=O)c1N | 177 °C
Cn1ncc2c(c1=O)SCCNC2Cc1ccc(Cl)cc1 (centres undefined) | 106 to 109 °C
COc1cccc(-c2nc3n(n2)Cc2ccc(OC)cc2-3)c1 | 136 to 138 °C
CCOC(=O)C1(NC(=O)CC)Cc2cccc3c2N(CCC3)C1=O (centres undefined) | 136 to 140 °C
Cc1nc(NCc2ccccc2)sc1-c1ccnc(Nc2ccc(N3CCOCC3)cc2)n1 | 180 to 183 °C
C#CCOc1cc(-c2ncc(C(F)(F)F)c(C)c2Cl)c(F)cc1Cl | 95 to 98 °C
CN(CCC1=C(C#N)C(c2cccc3nonc23)c2c[nH]nc2N1)C(=O)OC(C)(C)C (centres undefined) | 240 °C
CC(C)(C)OCC(=O)c1cnc(NC(=O)C(C)(C)C)cn1 | 138 to 140 °C
Cc1cc(C)c(-c2nc(-c3ccc(O)cc3O)nc(-c3ccc(O)cc3O)n2)c(C)c1 | 230 to 234 °C
CC(=O)N(C)C1CCC(O)(c2ccc(Cl)c(Cl)c2)c2ccccc21 (centres undefined) | 146 to 148 °C
Cn1c([N+](=O)[O-])cnc1-c1nc(C=O)cs1 | 180 to 182 °C
CCCCCCCCCCCCCCCCC[C@@H](C[C@@H]1OC(=O)[C@H]1CCCCCC)OC(=O)[C@H](CC(C)C)NC=O | 64 to 65 °C
O=C1CC2CCSc3sccc3C2=NN1c1ccc(Cl)cc1 (centres undefined) | 134 to 135 °C
CCCCn1c(=O)c2[nH]c(/C=C/c3cc(OC)c(OC)c(OC)c3)nc2n(CCCC)c1=O | 206 to 207 °C
Fc1ccc(-c2nn3cccnc3c2-c2ccncc2)cc1 | 194 °C
CCC[C@H]1CC[C@H](c2ccc(F)c(F)c2)CC1 | -15.4 °C
Nc1ccc2oc3c(OC(F)F)ccc(C(=O)Nc4c(Cl)cncc4Cl)c3c2c1 | 87 to 89 °C
COc1cc(N2CCN([C@H]3CC[C@@H](c4cn(C)c5ccc(C#N)cc54)CC3)CC2)c2ncc(C)cc2c1 | 190 to 192 °C
CCCC(CCC)C(=O)NC(C)C(=O)OC (centres undefined) | 72 to 73 °C
COC(=O)c1ccnc(OCc2nc(-c3ccccc3)oc2C)c1 | 106 to 107 °C
CC(=Cc1ccccc1)c1ncccc1C(N)=O | 150 to 155 °C
CCCC(=O)NCCc1c[nH]c2cc(Cl)c(OC)cc12 | 98 to 98.5 °C

SMILES | melting point
O=C(O)CCNC(=O)c1ccccc1NC(=O)c1ccccc1O | 200 to 202 °C
COC(=O)CN1CCC(C(=O)Oc2ccc([N+](=O)[O-])cc2)CC1 | 109 to 111 °C
Cc1cc(SC(Sc2cc(C)c(O)c(C(C)(C)C)c2)Sc2cc(C)c(O)c(C(C)(C)C)c2)cc(C(C)(C)C)c1O | 171 to 172 °C
Cc1ccc(-c2cccnc2C#N)cc1 | 136 to 138 °C
Cc1cccc(C2C(C#N)=C(C3CC3)Nc3n[nH]cc32)c1[N+](=O)[O-] (centres undefined) | 265 °C
CON=C(C)c1ccc(N2CC(CO)OC2=O)cc1 (centres undefined) | 149 to 150 °C
Cn1nnnc1SCC(=O)Nc1ccc(C2CCCCC2)cc1 | 204 to 205 °C
CC(NC(=S)NCC(COC(=O)C(C)(C)C)Cc1ccc(C(C)(C)C)cc1)c1ccc(NS(C)(=O)=O)c(F)c1 (centres undefined) | 78 °C
O=C(O)CN1C(=O)CC1SCc1ccccc1 (centres undefined) | 110 °C
N#CCCNC(=O)c1cccc(-c2cccn3cc(Cc4cccc(C(F)(F)F)c4)nc23)c1 | 126 to 127 °C
Cc1nc(-c2cccc(CN(C(=O)Nc3ccc(-c4ccccc4S(=O)(=O)NC(C)(C)C)cc3)c3ccccc3)c2)no1 | 191 to 192 °C
COc1ccc2c(C3CCN(CCCn4c(=O)[nH]c5ccccc54)CC3)noc2c1 | 176 to 178 °C
COC(=O)C(C)Oc1ccc(OCc2ccccc2)cc1 (centres undefined) | 63 to 65 °C
O=C(O)Cc1cccc2c(-c3ccccc3)nccc12 | 192 °C
CC(C)C1Cc2cc(OCC(=O)O)cc(Cl)c2C1=O (centres undefined) | 126 to 128 °C
O=C(O)c1ccc(C(=O)Nc2cc3c4c(c2)CCCC4CCC3)cc1 | 283 to 284 °C
CN(C)C(=O)Oc1ccc(Cl)c2c1C(=O)c1ccccc1C2=O | 182 to 184 °C
CSc1nc(-n2cnc([N+](=O)[O-])n2)c2cc(Br)ccc2n1 | 204 °C
N[C@@H](Cc1ccccc1)C(=O)N(CC1CC(Br)=NO1)C(=O)OCc1ccccc1 (some centres undefined) | 122 to 125 °C
O=C(NCc1ccc(Cl)cc1Cl)N1CCc2[nH]cnc2C1CCC1CCCCC1 (centres undefined) | 185 to 187 °C
CC(C)(CC(O)(Cn1ccc2c1CCCC2=O)C(F)(F)F)c1cc(S(C)(=O)=O)cc2c1OCC2 (centres undefined) | 207 to 208 °C
COc1cc(N)c(Cl)cc1C(=O)NCC12CCCN(CC1)C2 (centres undefined) | 185 to 187 °C
CCCc1c(OCCCCc2nc3ccc(C(=O)O)cc3[nH]2)ccc(C(C)=O)c1O | 98 to 100 °C
Cc1ccc(Cl)cc1N1C(=O)CN(c2ccccc2)C1=S | 168 to 170 °C
Clc1ccc2c(c1)N=C(NCCn1ccnc1)c1ccccc1N2 | 168 to 170 °C

SMILES | melting point
NC(=O)c1ccc(-c2ccc3nnn(Cc4c(F)cc5ncccc5c4F)c3n2)cc1Cl | 216 to 219 °C
O=C(O)C=Cc1ccc(OCCC(c2ccccc2)(c2ccccc2)c2ccccc2)cc1 | 207 to 209 °C
CC(O)c1ccc(C(O)C(C)(C)C)cc1 (centres undefined) | 118 to 121 °C
O=C1c2ccccc2C(=O)N1CCON1CCNC1=Nc1c(Cl)cccc1Cl | 129 to 130 °C
O=C(CCC1CCCCC1)NC1N=C(c2ccccc2)c2ccccc2N2CCN=C12 (centres undefined) | 202 to 208 °C
N#CCc1cccc(C(=O)c2ccc(Cl)cc2)c1 | 86 to 90 °C
O=C(c1ccccc1Cl)c1cccnc1Br | 76.3 °C
COC(=S)NC[C@H]1CN(c2cc(F)c(N3CNC(=O)C3)c(F)c2)C(=O)O1 | 199 °C
O=C(CCl)NCC(CNC(=O)CCl)OC1CCCCO1 (centres undefined) | 100 °C
CCN1C(=O)NC(=O)C1O (centres undefined) | 119 to 120 °C
CCSc1ccc(-c2ccccn2)c2c1C(=O)CC(C)C2 (centres undefined) | 120 to 122 °C
O=C(NCC1CCN(C[C@H]2COc3cccc(Cl)c3O2)CC1)c1cccnc1 | 52 to 54 °C
CCn1ncc(-c2ccc3c(c2)c(C2=CCN(CCN4CCNC4=O)CC2)cn3-c2ccc(F)cc2)n1 | 143 to 145 °C
CCC(C(C)=CC(CNC(=O)c1cccnc1F)=NO)[N+](=O)[O-] (centres undefined) | 91 to 92 °C
CCOCCc1ccc(OCCN(C(=O)n2ccnc2)c2ncnc(C)c2Cl)c(C)c1 | 87 to 88 °C
COc1ccc(CN(C)CCCCc2ccc(NC(=O)c3cccc4c(=O)cc(-c5ccccc5)[nH]c34)cc2)cc1OC | 171 °C
COc1cccc(-c2c(NC(=O)Nc3c(C(C)C)cccc3C(C)C)c(=O)n(CCOc3ccccc3)c3ncccc23)c1 | 168 to 170 °C
COc1cc(CSc2ccc(N)nn2)cc(OC)c1OC | 143 to 146 °C
CN1CCN(c2ccc(Nc3nc(N)c(C(=O)c4c(F)cccc4F)s3)cc2)CC1 | 168 to 170 °C
CN(C)C(=O)N(SC(N)=S)c1ccccc1 | 185 to 188 °C
CN1C(=O)C2CC(c3ccc([N+](=O)[O-])cc3)(C2)C1=O | 185 to 188 °C
O=C(O)c1cccc(S(=O)(=O)Oc2ccc(-c3ccc(-c4c(Cc5ccccc5)oc5ccccc45)cc3)cc2)c1 | 169 to 171 °C
COc1ccc(OC)c(-c2cc(F)cc3c2OC(CN)C3)c1 (centres undefined) | 120 to 122 °C
CCCc1nc(CO)n2[nH]c(=O)nc2c1Cc1ccc(-c2ccccc2-c2nnn[nH]2)cc1 | 182 to 183 °C
CNC(=C[N+](=O)[O-])NCc1cnc(Cl)s1 | 181 °C

SMILES | melting point
Cc1nc2c3c(ccn2c1C)C(=O)CC(c1ccsc1)N3 (centres undefined) | 176 to 177 °C
CN1CCN(NC(=O)Nc2cccc3c2C(=O)c2c-3n[nH]c2-c2ccc(N3CCN(C)CC3)cc2)CC1 | 293 °C
O=C1C2=C(SCCO2)C(O)N1c1ccc(Cl)cn1 (centres undefined) | 202 °C
c1cc(-c2ccncn2)cc(-n2cnc3cc(-c4ccon4)ccc32)c1 | 214 to 215 °C
C/C(=C\c1ccc(C(=O)O)cc1)c1ccc2c(c1)CCCCC2 | 198 °C
O=C(Cc1ccc(C(F)(F)F)cn1)c1ccc(Cl)cc1 | 114 to 116 °C
CCC1(c2ccc(=O)[nH]n2)CCCCC1 | 138 to 140 °C
COc1c(C(=O)O)nnn1Cc1ccccc1Cl | 130 to 135 °C
O=C1CC(O)CN1C(=O)Nc1ccccc1 (centres undefined) | 104 °C
CN(C)c1cccc(NC(=O)NC2C(=O)N(CC34CC5CC(CC(C5)C3)C4)c3ccccc3N(c3ccccc3)C2=O)c1 (centres undefined) | 263 to 265 °C
COc1ccc(C=C2c3ccccc3C(=NOCC(=O)NCC(C)(C)SN=O)c3ccccc32)cc1O | 143 to 145 °C
CC(=O)S[C@H]1CNC(=O)C1 | 114 to 116 °C
CCc1nc(-c2ccc(OCCCc3cccnc3)cc2)no1 | 63 to 64 °C
Cn1cnc2nc(-c3ccc(Br)cc3)nn2c1=S | > 300 °C
Cc1c(F)c(F)c(Cl)c2c1c(=O)c(C(=O)O)cn2-c1cc(N)c(F)cc1F | 271 to 274 °C
CCOCc1nc2c(N)nc3ccc(O)cc3c2n1CC(C)(C)NC(=O)C1CCCCC1 | 231 to 232 °C
NC1(C2CCCC2)NC=Nc2[nH]cc(-c3cccc(Oc4ccccc4)c3)c21 (centres undefined) | 128 °C
Cn1cc(CC(SSC(Cc2cn(C)c3ccccc23)C(=O)O)C(=O)O)c2ccccc21 (centres undefined) | 158 to 160 °C
Cc1cccc(NC(=O)NCC(=O)N(CC(=O)N2CCSC(C)(C)C2)c2ccccc2)c1 | 186 °C
COc1cccc(NC(=O)c2ccccc2C)c1 | 142 to 143 °C
COc1ccc(OCC(O)CN2CCC(N3CCNC3=O)CC2)cc1 (centres undefined) | 148 to 150 °C
ClC(Cl)(Cl)c1nsc(N2CCCC2)n1 | 106 to 107 °C
O=C(N[C@H](Cc1ccccc1)C(=O)O)OCc1ccc2oc(-c3ccccc3)cc2c1 | 173 to 174 °C
CCc1ccc(-c2ccc3c(c2)C=C(C(=O)O)CCO3)cc1 | 241 to 243 °C
